Laboratory results taken from US9000028B2, “Indole and indazole compounds as an inhibitor of cellular necrosis” (LG Life Sciences Ltd., priority 2007, dated 2015).
pEC50: −log10 of the molar value. Where two headings read alike, the source gives them in different places.

Tested on: primary hepatocytes isolated from rats
Assay: Hepatocyte protective effect against substances deriving hepatocyte toxicity (WST-1 viability)
Format: cell-based
Details: for pEC50: 24-48 h
Method: Various endogenous/exogenous attacks on the cells trigger the mechanisms of cell death which is broadly classified into two types, i.e. apoptosis or necrosis. Using these cell death mechanisms, in the present experimental example, primary hepatocytes isolated from rats were treated with drugs which were clinically shown to result in serious side-effects of hepatocyte toxicity or various chemicals which derive cell death, and the compounds synthesized in the Examples were estimated for their hepatocyte protective effects, after 24-48 h. The substances used to derive hepatocyte death include CCl4, ActD, H2O2, doxorubicin, anti-Fas Ab/Actinomycin D, acetaminophen, EtOH, CdCl2, palmitate, stearate, cyclophosphamide, terfenadine, diclofenac, simvastatin, and adefovir. Primary hepatocytes were isolated using the method of Seglen PO (Experimental Cell Research 74 (1972) pp 450-454). Briefly, hepatocytes were isolated according to the two-step collagenase perfusion method, and dead cells were removed by low speed (500 rpm) centrifugation for 10 min using percoll gradient (Kreamer B L etc, In Vitro Cellular & Developmental Biology 22 (1986) pp 201-211). During this step, the viability of cells was maintained 90% or above. The cells were suspended in HepatoZYME media (Gibco BRL), and the number of cells was counted. 1.5×10^4 cells in 100 μl were placed into the collagen-coated 96-well plate (BD biocoat), and adhered on the bottom for 3-4 h.
In order to assess the hepatocyte protective effect, above adhered cells were pretreated with the Example compounds for 30 min. At this time, the concentration of the Example compounds were serially diluted by 2-fold or 3-fold over 5 steps starting from 30 uM, 10 uM or 1 uM depending on the experiments, and the final concentration of DMSO was adjusted to 0.2%. 30 min after the treatment by compounds, cells were treated by the substances deriving hepatocyte death or hepatotoxic drugs at the concentrations indicated in Table 1. After 24-48 h, the viability of cells was determined to estimate the hepatocyte protective effects. The viability of cells was determined using WST-1 (MK-400, […]) method by the absorbance at 440 nm. Hepatocyte protective effects of the Example compounds were represented by “EC50,” which was calculated from measured values. “EC50” herein means the concentration of the compound at which 50% of maximum protective effect is observed in the experiment.

[1] = Rattus norvegicus, Hepatocyte, doxorubicin, read-out: EC50, cell protective effects against doxorubicin in hepatocytes
[2] = doxorubicin, rat primary hepatocytes, read-out: EC50, cell protective effects against doxorubicin in hepatocytes

CC(Nc1cc(Oc2ccccc2)cc2cc(-c3ccccc3)[nH]c12)C(=O)O (stereo not shown) [Example 111, 2-(5-Phenoxy-2-phenyl-1H-indol-7-yl)amino-propionic acid]
pEC50 [1]: 6.59

COC(=O)Cc1cccc(-c2cc3cc(Cl)cc(NC4CCCC4)c3[nH]2)c1 [Example 131, 2-[3-(5-Chloro-7-cyclopentylamino-1H-indol-2-yl)-phenyl]-acetic acid methyl ester]
pEC50 [1]: 6.44

CN1CCC(CNc2cc(F)cc3cc(-c4ccccc4)[nH]c23)CC1 [Example 59, (1-Methyl-piperidinemethyl-4-yl)-[5-fluoro-2-phenyl-1H-indol-7-yl]amine]
pEC50 [2]: 6.70

O=C(O)Cc1cccc(-c2cc3cc(Cl)cc(NC4CCOCC4)c3[nH]2)c1 [Example 129, 2-{3-[5-Chloro-7-(tetrahydropyran-4-yl)amino-1H-indol-2-yl]-phenyl}-acetic acid]
pEC50 [1]: 5.94

Clc1cc(NC2CCOCC2)c2[nH]c(-c3cccc(CC4CCNC4)c3)cc2c1 (stereo not shown) [Example 149, [5-Chloro-2-(3-pyrrolidin-4-ylmethylphenyl)-1H-indol-7-yl]-(tetrahydropyran-4-yl)-amine]
pEC50 [1]: 6.26

COc1ccc(-c2n[nH]c3c(NCC4CCOCC4)cccc23)cc1 [Example 159, [3-(4-Methoxyphenyl)-1H-indazol-7-yl)-(tetrahydropyran-4-ylmethyl)-amine]
pEC50 [1]: 6.96

O=C(C1CCCO1)N1CCC(Nc2cc(CN3CCS(=O)(=O)CC3)cc3cc(-c4ccccc4)[nH]c23)CC1 (stereo not shown) [Example 98, {4-[5-(1,1-Dioxo-thiomorpholin-4-yl)methyl-2-phenyl-1H-indol-7-yl]amino-piperidin-1-yl}-(tetrahydrofuran-2-yl)-methanone]
pEC50 [1]: 6.96

COC(=O)c1ccc(-c2cc3cc(C)cc(NC4CCCC4)c3[nH]2)cc1 [Example 143, 4-(7-Cyclopentylamino-5-methyl-1H-indol-2-yl)benzoic acid methyl ester]
pEC50 [1]: 7.18

CN(C)CC(=O)N1CCC(Nc2cc(Cl)cc3cc(-c4ccccc4)[nH]c23)CC1 [Example 95, 1-[4-(5-Chloro-2-phenyl-1H-indol-7-yl)amino-piperidin-1-yl]-2-dimethylamino-ethanone]
pEC50 [1]: 6.68

O=S1(=O)CCN(Cc2cc(NC3CCOCC3)c3[nH]c(-c4ccccc4)c(Br)c3c2)CC1 [Example 72, (Tetrahydropyran-4-yl)-(3-bromo-5-(1,1-dioxo-thiomorpholin-4-yl)methyl-2-phenyl-1H-indol-7-yl)-amine]
pEC50 [1]: 7.22

Cc1cc(NCC2CCCC2)c2[nH]c(-c3ccccc3)cc2c1 [Example 42, Cyclopentylmethyl-(5-methyl-2-phenyl-1H-indol-7-yl)-amine]
pEC50 [1]: 7.40

COc1ccc(-c2cc3cc(CN4CCS(=O)(=O)CC4)cc(NC4CCOCC4)c3[nH]2)cc1 [Example 39, (Tetrahydropyran-4-yl)-[2-(4-methoxy)phenyl-5-(1,1-dioxo-thiomorpholin-4-yl)methyl-1H-indol-7-yl]amine]
pEC50 [2]: 6.48

CN(C)C1CCC(Nc2cc(Cl)cc3cc(-c4ccccc4)[nH]c23)CC1 (stereo not shown) [Example 100, N-(5-chloro-2-phenyl-1H-indol-7-yl)-N′,N′-dimethyl-cyclohexane-1,4-diamine]
pEC50 [1]: 7.10

Cc1cc(NC2CCC(C(=O)O)CC2)c2[nH]c(-c3ccccc3)cc2c1 (stereo not shown) [Example 103, 4-(5-Methyl-2-phenyl-1H-indol-7-yl)amino-cyclohexane-1-carboxylic acid]
pEC50 [1]: 6.97

CC(=O)N1CCN(Cc2cccc(-c3cc4cc(Cl)cc(NC5CCOCC5)c4[nH]3)c2)CC1 [Example 150, 1-{4-[3-(5-Chloro-7-tetrahydropyran-4-ylamino-1H-indol-2-yl)-benzyl]-piperazin-1-yl}-ethanone]
pEC50 [1]: 6.80

Cc1cc(NC2CCN(C)CC2)c2[nH]c(-c3ccccn3)cc2c1 [Example 13, (1-Methylpiperidin-4-yl)-[5-methyl-2-(pyridin-2-yl)-1H-indol-7-yl]-amine]
pEC50 [1]: 6.40

O=S1(=O)CCN(Cc2cc(N(CC3CCOCC3)CC3CCOCC3)c3[nH]c(-c4ccccc4)cc3c2)CC1 [Example 57, Di(tetrahydropyran-4-ylmethyl)-[2-phenyl-5-(1,1-dioxo-thiomorpholin-4-yl)methyl-1H-indol-7-yl]amine]
pEC50 [1]: 6.57

CN(C)Cc1cccc(-c2cc3cc(Cl)cc(NC4CCOCC4)c3[nH]2)c1 [Example 147, [5-Chloro-2-(3-dimethylaminomethylphenyl)-1H-indol-7-yl]-(tetrahydropyran-4-yl)-amine]
pEC50 [1]: 6.34

Cc1cc(NC2CCCC2)c2[nH]c(-c3ccccn3)cc2c1 [Example 1, Cyclopentyl-[5-methyl-2-(pyridin-2-yl)-1H-indol-7-yl]-amine]
pEC50 [1]: 7.00

O=C1CN(CCc2cccc(-c3cc4cc(Cl)cc(NC5CCOCC5)c4[nH]3)c2)CCN1 [Example 151, {5-Chloro-2-[3-(2-oxo-piperazin-4-yl)ethylphenyl]-1H-indol-7-yl}-(tetrahydropyran-4-yl)-amine]
pEC50 [1]: < 5.70

Cc1cc(NC2CCCC2)c2[nH]ncc2c1 [Example 155, Cyclopentyl-(5-methyl-1H-indazol-7-yl)-amine]
pEC50 [1]: 5.89

O=C(O)Cc1cccc(-c2cc3cc(Cl)cc(NCC4CCOCC4)c3[nH]2)c1 [Example 127, 2-{3-[5-Chloro-7-(tetrahydropyran-4-ylmethyl)amino-1H-indol-2-yl]-phenyl}-acetic acid]
pEC50 [1]: 6.23

O=C(O)Cc1cccc(-c2cc3cc(Cl)cc(NC4CCCC4)c3[nH]2)c1 [Example 128, 2-[3-(5-Chloro-7-cyclopentylamino-1-H-indol-2-yl)-phenyl]-acetic acid]
pEC50 [2]: 6.77

COC(=O)Cc1ccc(-c2cc3cc(Cl)cc(NC4CCOCC4)c3[nH]2)cc1 [Example 146, 2-{4-[5-Chloro-7-(tetrahydropyran-4-yl)amino-1H-indol-2-yl]phenyl}-acetic acid methyl ester]
pEC50 [1]: 6.48

Cc1ccc(Nc2cc(Cl)cc3cc(-c4ccccc4)[nH]c23)nc1 [Example 114, (5-Chloro-2-phenyl-1H-indol-7-yl)-5-methyl-pyridin-2-yl-amine]
pEC50 [1]: 6.43

COC(=O)Cc1cccc(-c2cc3cc(Cl)cc(NC4CCOCC4)c3[nH]2)c1 [Example 132]
pEC50 [2]: 6.37

OCC(CO)Nc1cc(Cl)cc2cc(-c3ccccc3)[nH]c12 [Example 54, 2-[(5-Chloro-2-phenyl-1H-indol-7-yl)amino]propan-1,3-diol]
pEC50 [1]: 6.66

COC(=O)c1ccccc1-c1cc2cc(Cl)cc(NC3CCCC3)c2[nH]1 [Example 135, 2-(5-Chloro-7-cyclopentylamino-1H-indol-2-yl)-benzoic acid methyl ester]
pEC50 [1]: 6.82

CNC(=O)C1CCC(Nc2cc(Cl)cc3cc(-c4ccccc4)[nH]c23)CC1 (stereo not shown) [Example 105, 4-(5-Chloro-2-phenyl-1H-indol-7-yl)amino-cyclohexanecarboxylic acid methylamide]
pEC50 [1]: 7.15

O=C(O)[C@@H]1CCCN1C(=O)c1cc(NC2CCOCC2)c2[nH]c(-c3ccccc3)cc2c1 [Example 118, (2S)-1-[2-phenyl-7-(tetrahydropyran-4-yl)amino-1H-indole-5-carbonyl]-pyrrolidine-2-carboxylic acid]
pEC50 [1]: 5.96

Cc1cc(NC2CCCC2)c2[nH]c(-c3ccccc3)c(C)c2c1 [Example 40, Cyclopentyl-[3,5-dimethyl-2-phenyl-1H-indol-7-yl]-amine]
pEC50 [1]: 6.70

Cc1cc(NC2CCOCC2)c2[nH]c(-c3ccccc3)cc2c1 [Example 41, (Tetrahydropyran-4-yl)-(5-methyl-2-phenyl-1H-indol-7-yl)-amine]
pEC50 (Rattus norvegicus, Hepatocyte, Actinomycin D 100 ng/mL, read-out: EC50, protective effect against the substances deriving hepatotoxicity): 6.77
pEC50 (Rattus norvegicus, Hepatocyte, Anti-Fas Ab 1 ug/mL / Actinomycin D 5 ng/mL, read-out: EC50, protective effect against the substances deriving hepatotoxicity): > 6.22
pEC50 (Rattus norvegicus, Hepatocyte, CCl4 10 mM, read-out: EC50, protective effect against the substances deriving hepatotoxicity): 6.10
pEC50 (Rattus norvegicus, Hepatocyte, CdCl2 1 uM, read-out: EC50, protective effect against the substances deriving hepatotoxicity): 5.72
pEC50 (Rattus norvegicus, Hepatocyte, Cyclophosphamide 3 mM, read-out: EC50, protective effect against the substances deriving hepatotoxicity): > 6.70
pEC50 (Rattus norvegicus, Hepatocyte, Doxorubicin 5 uM, read-out: EC50, protective effect against the substances deriving hepatotoxicity): 7.22
pEC50 (Rattus norvegicus, Hepatocyte, EtOH 2.5%, read-out: EC50, protective effect against the substances deriving hepatotoxicity): 5.05
pEC50 (Rattus norvegicus, Hepatocyte, H2O2 10 mM, read-out: EC50, protective effect against the substances deriving hepatotoxicity): 6.10
pEC50 (Rattus norvegicus, Hepatocyte, Palmitic acid 700 uM, read-out: EC50, protective effect against the substances deriving hepatotoxicity): > 6.22
pEC50 (Rattus norvegicus, Hepatocyte, Stearic acid 700 uM, read-out: EC50, protective effect against the substances deriving hepatotoxicity): > 6.22
pEC50 [1]: 7.22
viability at 3-100 uM (Tacrine 0.5 mM, compound at 3-100 uM, rat primary hepatocytes): 50%
